Laboratory results: ChEMBL document CHEMBL1144963, “Polyacylated neohesperidosides from Geranium caespitosum: bacterial multidrug resistance pump inhibitors” (2003)

Columns and labels:
Type in all cases: functional
Priestia megaterium [1] = assay: Antimicrobial activity against Bacillus megaterium in combination with Ciprofloxacin and 10 ug/mL of compound 4 (alone MIC= 0.8 ug/mL)
Priestia megaterium [2] = assay: Antimicrobial activity against Bacillus megaterium in combination with Norfloxacin and 10 ug/mL of compound 4 (alone MIC= 1 ug/mL)
Priestia megaterium [3] = assay: Antimicrobial activity against Bacillus megaterium in combination with Rhein and 10 ug/mL of compound 4 (alone MIC= 4 ug/mL)
Bacillus subtilis [4] = assay: Antimicrobial activity against Bacillus subtilis in combination with Berberine and 10 ug/mL of compound 4 (alone MIC= 500 ug/mL)
Bacillus subtilis [5] = assay: Antimicrobial activity against Bacillus subtilis in combination with Ciprofloxacin and 10 ug/mL of compound 4 (alone MIC= 0.8 ug/mL)
Bacillus subtilis [6] = assay: Antimicrobial activity against Bacillus subtilis in combination with Norfloxacin and 10 ug/mL of compound 4 (alone MIC= 1 ug/mL)
Bacillus subtilis [7] = assay: Antimicrobial activity against Bacillus subtilis in combination with Rhein and 10 ug/mL of compound 4 (alone MIC= 16 ug/mL)
Staphylococcus aureus [8] = assay: Antimicrobial activity against NorA Staphylococcus aureus in combination with Berberine and 10 ug/mL of compound 4 (alone MIC= 64 ug/mL)
Staphylococcus aureus [9] = assay: Antimicrobial activity against NorA Staphylococcus aureus in combination with Ciprofloxacin and 10 ug/mL of compound 4 (alone MIC= 0.2 ug/mL)
Staphylococcus aureus [10] = assay: Antimicrobial activity against NorA Staphylococcus aureus in combination with Norfloxacin and 10 ug/mL of compound 4 (alone MIC= 0.4 ug/mL)
Staphylococcus aureus [11] = assay: Antimicrobial activity against NorA Staphylococcus aureus in combination with Rhein and 10 ug/mL of compound 4 (alone MIC= 4 ug/mL)
Staphylococcus aureus [12] = assay: Antimicrobial activity against Staphylococcus aureus in combination with Berberine and 10 ug/mL of compound 4 (alone MIC= 500 ug/mL)
Staphylococcus aureus [13] = assay: Antimicrobial activity against Staphylococcus aureus in combination with Ciprofloxacin and 10 ug/mL of compound 4 (alone MIC= 0.5 ug/mL)
Staphylococcus aureus [14] = assay: Antimicrobial activity against Staphylococcus aureus in combination with Norfloxacin and 10 ug/mL of compound 4 (alone MIC= 1 ug/mL)
Staphylococcus aureus [15] = assay: Antimicrobial activity against Staphylococcus aureus in combination with Rhein and 10 ug/mL of compound 4 (alone MIC= 4 ug/mL)
Priestia megaterium [16] = assay: Antimicrobial activity against Bacillus megaterium in combination with Berberine and 10 ug/mL of compound 4 (alone MIC= 125 ug/mL)

CCCCOC1OC(COC(=O)C(C)C)C(OC(=O)C(C)C)C(O)[C@H]1O[C@@H]1OC(C)C(OC(=O)C(C)C)C(OC(C)=O)C1OC(=O)CCCC (stereo partly specified)
MIC (Priestia megaterium [1]): 0.1 µg/mL
MIC (Priestia megaterium [2]): 0.2 µg/mL
MIC (Priestia megaterium [3]): 1 µg/mL
MIC (Bacillus subtilis [4]): 125 µg/mL
MIC (Bacillus subtilis [5]): 0.1 µg/mL
MIC (Bacillus subtilis [6]): 0.2 µg/mL
MIC (Bacillus subtilis [7]): 4 µg/mL
MIC (Staphylococcus aureus [8]): 1.56 µg/mL
MIC (Staphylococcus aureus [9]): 0.1 µg/mL
MIC (Staphylococcus aureus [10]): 0.1 µg/mL
MIC (Staphylococcus aureus [11]): 1 µg/mL
MIC (Staphylococcus aureus [12]): 3.12 µg/mL
MIC (Staphylococcus aureus [13]): 0.1 µg/mL
MIC (Staphylococcus aureus [14]): 0.2 µg/mL
MIC (Staphylococcus aureus [15]): 1 µg/mL
MIC (Priestia megaterium [16]): 6.25 µg/mL
